For six compounds, IC50 results are on record in patent publication US11014898B1, “Benzothiazepine compounds and their use as bile acid modulators” (Albireo AB, priority 2020, dated 2021).

In general, IC50 refers to the concentration that inhibits the measured activity by half.

Assay [1] has as its target T1, Human IBAT (Homo sapiens, UniProt Q12908).
T1 construct: expressed in transfected cells; cells kept under Puromycin selection
T1 sequence (Q12908 1-348): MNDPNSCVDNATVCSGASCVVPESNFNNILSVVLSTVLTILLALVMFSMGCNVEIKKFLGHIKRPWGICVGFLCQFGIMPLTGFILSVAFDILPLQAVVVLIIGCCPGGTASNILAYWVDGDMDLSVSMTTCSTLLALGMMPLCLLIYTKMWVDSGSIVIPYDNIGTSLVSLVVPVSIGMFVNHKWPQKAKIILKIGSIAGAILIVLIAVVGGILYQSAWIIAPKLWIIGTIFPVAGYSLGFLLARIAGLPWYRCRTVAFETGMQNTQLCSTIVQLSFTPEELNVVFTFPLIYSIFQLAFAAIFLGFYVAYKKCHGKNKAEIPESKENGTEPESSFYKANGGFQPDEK
Briefly: IBAT (h) assay: 3H-taurocholic acid uptake in human IBAT-overexpressing cells. The following applies: 0.25 μM 3H-taurocholic acid and 5 μM cold taurocholic acid, 20 minutes, read-out: hIBAT IC50. The format is cell-based. The method, then:
10,000 cells (Human or Mouse IBAT-overexpressing cells) were seeded in 96-wells plate (Corning CLS3809) in 200 μL MEM-alpha medium (Gibco 12571-063) supplemented with 10% FBS (Gibco 10438026) containing Puromycin (Gibco A1113803) (10 μg/mL) and incubated at 37° C. in 5% CO2 for 48 hours. After incubation, media was decanted from the wells and cells were washed two times with 300 μL of basal MEM-alpha medium (FBS-free). After decanting basal MEM-alpha medium each time, plates were tapped against paper towel to ensure maximum removal of residual media. Test inhibitor dilutions (highest test concentration being 10 μM, 3-fold serial dilution, 10 points) prepared in DMSO (Sigma D2650) were added in incubation mix (maintaining 0.2% final DMSO concentration) containing 0.25 μM 3H-taurocholic acid (ARC ART-1368) and 5 μM of cold taurocholic acid (Sigma T4009). 50 μL of incubation mix containing test inhibitors was then added to the wells (in duplicate) and the plates were incubated for 20 minutes in a CO2 incubator at 37° C. After incubation, the reaction was stopped by keeping the plates on ice water mix for 2-3 minutes and then the incubation mix was aspirated completely from the wells. The wells were washed two times with 250 μL of chilled unlabelled 1 mM taurocholic acid dissolved in HEPES (Gibco 15630080)-buffered (10 mM) HBSS (Gibco 14175079) (pH 7.4). The plates were tapped against a paper towel after every wash to ensure maximum removal of blocking buffer.
100 μL of MicroScint-20 (PerkinElmer 6013621) was added to the wells and kept overnight at room temperature before reading the plates in TopCount NXT™ Microplate Scintillation and Luminescence Counter from PerkinElmer under 3H Test protocol (set at 120 seconds reading time per well).
(§1) All test compounds were provided in powder form at room temperature. 10 mM DMSO stocks of the test compounds were prepared, aliquoted and stored at −20° C. From the 10 mM DMSO stock of the compounds, a 3-fold serial dilution in DMSO was prepared to get a total of 10 dilutions of the test compounds. 0.5 μL of this dilution in DMSO was added to 250 μL of FBS-free basal media containing 3H-taurocholic acid and cold taurocholic acid to prepare the incubation mixture.

For assay [2], the target named is T2, Human LBAT (Homo sapiens, UniProt Q14973).
T2 construct: expressed in transfected cells; cells kept under Geneticin selection
T2 sequence (Q14973 1-349): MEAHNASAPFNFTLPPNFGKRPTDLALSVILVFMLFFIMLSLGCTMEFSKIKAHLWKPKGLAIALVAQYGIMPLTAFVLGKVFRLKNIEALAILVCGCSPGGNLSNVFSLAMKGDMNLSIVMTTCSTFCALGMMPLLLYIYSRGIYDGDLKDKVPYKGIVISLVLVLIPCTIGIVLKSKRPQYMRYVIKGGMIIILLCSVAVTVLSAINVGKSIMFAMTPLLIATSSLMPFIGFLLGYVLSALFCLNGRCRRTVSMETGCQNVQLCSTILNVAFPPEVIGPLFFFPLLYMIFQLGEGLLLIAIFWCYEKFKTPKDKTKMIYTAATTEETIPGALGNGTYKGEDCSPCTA
Briefly: LBAT (h) assay: 3H-taurocholic acid uptake in human LBAT-overexpressing cells. The format is cell-based. Conditions: 0.3 μM 3H-taurocholic acid and 7.5 μM cold taurocholic acid, 20 minutes, read-out: hLBAT IC50. The method, then:
20,000 cells (Human or Mouse LBAT-overexpressing cells) were seeded in 96-wells plate (Corning CLS3809) in 100 μL MEM-alpha medium (Gibco 12571-063) supplemented with 10% FBS (Gibco 10438026) containing Geneticin (Gibco 10131-027) (1 mg/mL) and incubated at 37° C. in 5% CO2 for 24 hours. After incubation, media was decanted from the wells and cells were washed two times with 300 μL of basal MEM-alpha medium (FBS-free). After decanting basal MEM-alpha medium each time, plates were tapped against paper towel to ensure maximum removal of residual media. For human LBAT, incubation mix was prepared by adding test inhibitor dilutions (3-fold serial dilution in DMSO (Sigma D2650), 10 points) in MEM-alpha (without FBS) containing 0.3 μM 3H-taurocholic acid (ARC ART-1368) and 7.5 μM cold taurocholic acid (Sigma T4009) (maintaining 0.2% final DMSO concentration). For mouse LBAT, incubation mix was prepared by adding test inhibitor dilutions (3-fold serial dilution in DMSO, 10 points) in MEM-alpha (without FBS) containing 0.3 μM 3H-taurocholic acid and 25 μM cold taurocholic acid maintaining 0.2% final DMSO concentration).
50 μL of incubation mix containing test inhibitors was then added to the wells (in duplicate) and the plates were incubated for 20 minutes in a CO2 incubator at 37° C. After incubation, the reaction was stopped by keeping the plates on ice water mix for 2-3 minutes and then the incubation mix was aspirated completely from the wells. The wells were washed two times with 250 μL of chilled unlabelled 1 mM taurocholic acid dissolved in HEPES (Gibco 15630080)-buffered (10 mM) HBSS (Gibco 14175079) (pH 7.4). The plates were tapped against a paper towel after every wash to ensure maximum removal of blocking buffer.
100 μL of MicroScint-20 (PerkinElmer 6013621) was added to the wells and kept overnight at room temperature before reading the plates in TopCount NXT™ Microplate Scintillation and Luminescence Counter from PerkinElmer under 3H Test protocol (set at 120 seconds reading time per well, with normal plate orientation).
as §1

For the compound `CCCCC1(CC)CN(c2ccccc2)c2cc(F)c(OCC(=O)O)cc2S(=O)(=O)C1` (stereo not drawn) [Example 12, 2-((3-butyl-3-ethyl-7-fluoro-1,1-dioxido-5-phenyl-2,3,4,5-tetrahydro-1,5-benzothiazepin-8-yl)oxy)acetic Acid], the IC50 stood at 350 nM in assay [1] and 473 nM in assay [2].

On to `CCCCC1(CCCC)CN(c2ccccc2)c2cc(F)c(OCC(=O)O)cc2S(=O)(=O)C1` [Example 10, 2-((3,3-dibutyl-7-fluoro-1,1-dioxido-5-phenyl-2,3,4,5-tetrahydro-1,5-benzothiazepin-8-yl)oxy)acetic Acid], for which the IC50 in assay [1] was 179 nM; in assay [2] it was 1070 nM.

Consider `CCCCC1(CCCC)CN(c2ccc(C(F)(F)F)cc2)c2cc(SC)c(OCC(=O)O)cc2S(=O)(=O)C1` [Example 6, 2-((3,3-dibutyl-7-(methylthio)-1,1-dioxido-5-(4-(trifluoromethyl)phenyl)-2,3,4,5-tetrahydro-1,5-benzothiazepin-8-yl)oxy)acetic Acid], for which the IC50 in assay [1] was 59 nM; in assay [2], 3610 nM.

With `CCCCC1(CCCC)CN(c2ccccc2)c2cc(Cl)c(OCC(=O)O)cc2S(=O)(=O)C1` [Example 13, 2-((3,3-dibutyl-7-chloro-1,1-dioxido-5-phenyl-2,3,4,5-tetrahydro-1,5-benzothiazepin-8-yl)oxy)acetic Acid], the 50% inhibitory concentration (IC50) in assay [1] worked out at 268 nM; in assay [2], 1620 nM.

Take `CCCCC1(CC)CN(c2ccc(O)cc2)c2cc(SC)c(OCC(=O)O)cc2S(=O)(=O)C1` (single isomer, unassigned) [Example 20, 2-((3-butyl-3-ethyl-5-(4-hydroxyphenyl)-7-(methylthio)-1,1-dioxido-2,3,4,5-tetrahydro-1,5-benzothiazepin-8-yl)oxy)acetic Acid]: the IC50 amounted to 14 nM in assay [1] and 751 nM in assay [2].

For `CCCCC1(CCCC)CN(c2ccccc2)c2cc(C#N)c(OCC(=O)O)cc2S(=O)(=O)C1` [Example 11, 2-((3,3-dibutyl-7-cyano-1,1-dioxido-5-phenyl-2,3,4,5-tetrahydro-1,5-benzothiazepin-8-yl)oxy)acetic Acid], the IC50 in assay [1] is 281 nM; in assay [2], 2530 nM.
